Biological target: T1, Vitamin D3 receptor (Homo sapiens, UniProt P11473)
T1 sequence (P11473 whole entry): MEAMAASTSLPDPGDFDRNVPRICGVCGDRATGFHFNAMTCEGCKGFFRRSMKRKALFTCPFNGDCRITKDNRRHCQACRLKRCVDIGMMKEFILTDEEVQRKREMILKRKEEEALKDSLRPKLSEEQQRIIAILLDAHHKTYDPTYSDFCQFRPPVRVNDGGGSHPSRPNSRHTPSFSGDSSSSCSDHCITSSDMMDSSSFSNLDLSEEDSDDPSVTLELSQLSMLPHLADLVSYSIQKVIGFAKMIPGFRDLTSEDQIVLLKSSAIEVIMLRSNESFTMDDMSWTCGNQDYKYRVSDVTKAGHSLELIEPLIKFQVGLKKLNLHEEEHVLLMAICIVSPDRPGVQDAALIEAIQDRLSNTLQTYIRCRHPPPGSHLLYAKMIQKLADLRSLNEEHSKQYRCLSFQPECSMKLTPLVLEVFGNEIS
Assay: Binding affinity to full length human VDR by Competitive binding assay

C=C1/C(=C\C=C(/C)c2cccc(CCC#CCC(O)(C(F)(F)F)C(F)(F)F)c2)C[C@@H](O)C[C@@H]1O
IC50: 4.6 nM

Reference: BindingDB's records for doi:10.1021/acs.jmedchem.3c01371 (University of Santiago De Compostela, 2023)
